From the CheMixHub viscosity set

Test: xn = mol fraction of the nth substance listed

COCCOCCOC + CC(C)CO
viscosity [mPa·s], 101 kPa
Settings	x1 = 0.104	x1 = 0.2048	x1 = 0.3058	x1 = 0.4023	x1 = 0.5027	x1 = 0.605	x1 = 0.7019	x1 = 0.8023	x1 = 0.9024
298.15 K	2.146	1.635	1.377	1.231	1.136	1.076	1.038	1.011	0.995
308.15 K	1.649	1.302	1.121	1.013	0.947	0.904	0.876	0.856	0.846
318.15 K	1.284	1.047	0.938	0.845	0.796	0.78	0.747	0.733	0.726

CCCCCCn1cc[n+](C)c1.F[B-](F)(F)F + CC(C)O
101 kPa
Settings	viscosity [mPa·s]
293.15 K, x1 = 0.7711	78.36
313.15 K, x1 = 0.08354	1.965
323.15 K, x1 = 0.238	3.035
323.15 K, x1 = 0.8507	28.15

COC(=O)OC + CC(C)O
101.3 kPa
Settings	viscosity [mPa·s]
293.15 K, x1 = 0.0526	1.968
293.15 K, x1 = 0.0934	1.706
293.15 K, x1 = 0.2033	1.212
293.15 K, x1 = 0.3129	0.943
293.15 K, x1 = 0.4065	0.817
293.15 K, x1 = 0.5	0.74
293.15 K, x1 = 0.6079	0.686
293.15 K, x1 = 0.7026	0.647
293.15 K, x1 = 0.8048	0.609
293.15 K, x1 = 0.9008	0.593
293.15 K, x1 = 0.9507	0.601
298.15 K, x1 = 0.0498	1.733
298.15 K, x1 = 0.0979	1.454
298.15 K, x1 = 0.2031	1.046
298.15 K, x1 = 0.2999	0.844
298.15 K, x1 = 0.3972	0.74
298.15 K, x1 = 0.4892	0.69
298.15 K, x1 = 0.5938	0.654
298.15 K, x1 = 0.6971	0.625
298.15 K, x1 = 0.7983	0.589
298.15 K, x1 = 0.9012	0.567
298.15 K, x1 = 0.9451	0.567
303.15 K, x1 = 0.0437	1.537
303.15 K, x1 = 0.1028	1.287
303.15 K, x1 = 0.2013	0.992
303.15 K, x1 = 0.3062	0.802
303.15 K, x1 = 0.384	0.713
303.15 K, x1 = 0.4951	0.642
303.15 K, x1 = 0.5998	0.606
303.15 K, x1 = 0.7053	0.581
303.15 K, x1 = 0.8047	0.562
303.15 K, x1 = 0.9062	0.545
303.15 K, x1 = 0.937	0.542
313.15 K, x1 = 0.0507	1.147
313.15 K, x1 = 0.0997	1.005
313.15 K, x1 = 0.1984	0.799
313.15 K, x1 = 0.2975	0.668
313.15 K, x1 = 0.4001	0.592
313.15 K, x1 = 0.4884	0.553
313.15 K, x1 = 0.5959	0.522
313.15 K, x1 = 0.7017	0.506
313.15 K, x1 = 0.8014	0.494
313.15 K, x1 = 0.9053	0.49
313.15 K, x1 = 0.9492	0.491

CNc1ccccc1 + CCC(=O)O
308.15 K, 101.33 kPa
Settings	viscosity [mPa·s]
x2 = 0.1405	1.689
x2 = 0.2649	1.817
x2 = 0.3831	1.959
x2 = 0.4886	2.058
x2 = 0.5912	2.143
x2 = 0.6846	2.115
x2 = 0.7714	1.931
x2 = 0.8525	1.631
x2 = 0.8913	1.45
x2 = 0.9291	1.226
x2 = 0.9645	1.053
